Test results from ChEMBL document CHEMBL5154828 (J Med Chem, 2022).

Tests used:
[1] = Ratio of drug concentration in rat kidney to plasma at 20 mg/kg, po measured after 2 hrs
[2] = Tmax in ICR mouse at 5 mg/kg, po measured up to 24 hrs by LC/MS/MS analysis; format: ADME, organism-based; details: in vivo
[3] = Clearance in ICR mouse at 2 mg/kg, iv measured up to 24 hrs by LC/MS/MS analysis; format: ADME, organism-based; details: in vivo
[4] = Elimination half life in Sprague-Dawley rat at 10 mg/kg, po measured up to 24 hrs by LC/MS/MS analysis; format: ADME, organism-based; details: in vivo, read-out: beta t1/2 (converted)
[5] = target: T1, Estrogen receptor (Homo sapiens) (UniProt P03372); assay: Induction of ERalpha degradation in human MCF7 cells at 1 nM by Western blot analysis; format: cell-based; details: time 0.5-24 hrs, TDE = time-dependent effect
T1 sequence (whole entry): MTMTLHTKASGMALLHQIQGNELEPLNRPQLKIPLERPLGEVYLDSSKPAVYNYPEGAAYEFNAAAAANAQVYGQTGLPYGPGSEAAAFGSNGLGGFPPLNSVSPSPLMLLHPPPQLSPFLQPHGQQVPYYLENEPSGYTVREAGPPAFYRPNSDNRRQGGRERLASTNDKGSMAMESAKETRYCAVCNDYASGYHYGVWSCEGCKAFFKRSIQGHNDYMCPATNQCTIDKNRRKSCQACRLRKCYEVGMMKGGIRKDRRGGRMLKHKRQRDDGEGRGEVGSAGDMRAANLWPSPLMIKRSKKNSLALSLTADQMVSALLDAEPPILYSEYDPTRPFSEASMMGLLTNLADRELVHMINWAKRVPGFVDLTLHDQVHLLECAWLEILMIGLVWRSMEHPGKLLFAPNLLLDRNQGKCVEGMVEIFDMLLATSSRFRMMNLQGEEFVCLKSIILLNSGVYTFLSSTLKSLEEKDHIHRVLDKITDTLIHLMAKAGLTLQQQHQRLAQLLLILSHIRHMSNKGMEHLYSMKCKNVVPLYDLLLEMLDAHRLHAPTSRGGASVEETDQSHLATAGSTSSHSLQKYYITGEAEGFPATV

[6] = target: T1, Estrogen receptor (Homo sapiens); assay: Induction of ERalpha degradation in human CAMA-1 cells incubated 24 hrs by Western blot analysis; format: cell-based; details: dose 0.1-1000 nM, DDE = dose-dependent effect
[7] = target: T1, Estrogen receptor (Homo sapiens); assay: Induction of ERalpha degradation in human MDA-MB-361 cells incubated 24 hrs by Western blot analysis; format: cell-based; details: dose 0.1-1000 nM, DDE = dose-dependent effect
[8] = Ratio of drug concentration in rat brain to plasma at 20 mg/kg, po measured after 2 hrs
[9] = Cmax in ICR mouse at 2 mg/kg, iv measured up to 24 hrs by LC/MS/MS analysis; format: ADME, organism-based; set-up: dose 2 mg/kg, time < 24 hrs, route iv; details: in vivo
[10] = Antiproliferative activity against human MCF-7/TAMR-1 cells assessed as inhibition of cell growth measured after 8 days by cell titre glo luminescence assay; details: MCF-7/TAMR-1, 192 h
Estrogen receptor [11] = target: T2, Estrogen receptor (Homo sapiens, UniProt P03372); assay: Induction of ERalpha degradation in human MCF7 cells incubated for 24 hrs by Western blot analysis; format: cell-based
T2 sequence (P03372 whole entry): T1 sequence (whole entry)

Estrogen receptor [12] = target: Estrogen receptor (Homo sapiens, UniProt P03372, Y537S); assay: Antagonist activity at ERalpha Y537S mutant degradation in human SK-BR-3 cells incubated for 24 hrs in presence of beta-estradiol by luciferase gene assay; format: cell-based
[13] = Ratio of drug concentration in rat ovary to plasma at 20 mg/kg, po measured after 2 hrs; details: female
[14] = Elimination half life in ICR mouse at 5 mg/kg, po measured up to 24 hrs by LC/MS/MS analysis; format: ADME, organism-based; details: in vivo, read-out: beta t1/2 (converted)
[15] = Drug concentration in rat plasma at 20 mg/kg, po measured after 2 hrs; format: ADME, organism-based

Chain of Estrogen receptor (Homo sapiens, UniProt P03372, Y537S) (P03372 whole entry Y537S): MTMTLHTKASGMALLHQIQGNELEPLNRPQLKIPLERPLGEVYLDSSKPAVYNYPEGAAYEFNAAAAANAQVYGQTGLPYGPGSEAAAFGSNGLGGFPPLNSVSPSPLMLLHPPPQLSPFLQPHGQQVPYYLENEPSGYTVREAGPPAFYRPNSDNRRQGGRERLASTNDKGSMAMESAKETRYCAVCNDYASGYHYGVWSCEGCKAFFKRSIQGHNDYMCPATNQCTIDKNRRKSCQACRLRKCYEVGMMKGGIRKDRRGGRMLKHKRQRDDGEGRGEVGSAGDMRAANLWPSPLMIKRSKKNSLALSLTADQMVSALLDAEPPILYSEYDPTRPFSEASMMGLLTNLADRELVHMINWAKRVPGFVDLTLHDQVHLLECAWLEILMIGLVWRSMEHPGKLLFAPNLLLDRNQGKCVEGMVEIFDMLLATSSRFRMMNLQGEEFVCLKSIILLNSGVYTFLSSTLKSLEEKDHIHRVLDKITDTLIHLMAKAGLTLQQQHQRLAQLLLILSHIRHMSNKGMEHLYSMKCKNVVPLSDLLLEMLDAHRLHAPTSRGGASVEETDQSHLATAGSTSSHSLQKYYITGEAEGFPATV

## CC(F)(F)c1cc(Cl)ccc1-c1sc2c(ccc3[nH]ncc32)c1Oc1ccc(OC2CN(CCCF)C2)cc1
[1]
  Kp at 2 h: 11.7
[2]
  Tmax: 2.7 h
[3]
  clearance: 7 mL/min/kg
[4]
  half-life: 4.6 h
[5]
  Activity: Tde
[6]
  Activity: Dde
[7]
  Activity: Dde
[8]
  Kp at 2 h: 0.7
[9]
  Cmax: 764 ng/mL
[10]
  IC50: 3.2 nM
Estrogen receptor [11]
  EC50: 1.1 nM
Estrogen receptor [12]
  IC50: 10.3 nM
[13]
  Kp at 2 h: 7.3
[14]
  half-life: 5.7 h
[15]
  concentration at 2 h: 609 ng/mL
